From PubChem BioAssay AID2060509 (Molecular Pharmacology Branch, DTP, NCI, 2025)

Tested on: 485176-168-R4-J1-PDC spheroids with HUVEC/MSC, viability
Assay: Anticancer human tumor 485176-168-R4-J1-PDC patient-derived pancreatic adenocarcinoma cell line growth inhibition [GQUAD]
Details: for IC50: curve of first compound; for viability, T/C: stronger effect = lower value
In short: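 Tumor cells were grown as complex spheroids with HUVEC endothelial cells and mesenchymal stem cells as stroma. G-quadruplex stabilizers were combined with targeted agents over half-log dilutions from near the clinical Cmax, or from 10 microM.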

[1] = second compound 0.0316 µM, first compound 0.0316 µM
[2] = second compound 0.0316 µM, first compound 0.316 µM
[3] = second compound 0.1 µM, first compound 0.0316 µM
[4] = second compound 0.1 µM, first compound 0.316 µM
[5] = second compound 0.316 µM, first compound 0.0316 µM
[6] = second compound 0.316 µM, first compound 0.316 µM
[7] = second compound 1 µM, first compound 0.0316 µM
[8] = second compound 1 µM, first compound 0.316 µM
[9] = second compound 3.16 µM, first compound 0.0316 µM
[10] = second compound 3.16 µM, first compound 0.316 µM
[11] = second compound 10 µM, first compound 0.0316 µM
[12] = second compound 10 µM, first compound 0.316 µM
[13] = second compound 0.0316 µM, first compound 0.000999 µM
[14] = second compound 0.0316 µM, first compound 0.00316 µM
[15] = second compound 0.0316 µM, first compound 0.00999 µM
[16] = second compound 0.0316 µM, first compound 0.0999 µM
[17] = second compound 0.1 µM, first compound 0.000999 µM
[18] = second compound 0.1 µM, first compound 0.00316 µM
[19] = second compound 0.1 µM, first compound 0.00999 µM
[20] = second compound 0.1 µM, first compound 0.0999 µM
[21] = second compound 0.316 µM, first compound 0.000999 µM
[22] = second compound 0.316 µM, first compound 0.00316 µM
[23] = second compound 0.316 µM, first compound 0.00999 µM
[24] = second compound 0.316 µM, first compound 0.0999 µM
[25] = second compound 1 µM, first compound 0.000999 µM
[26] = second compound 1 µM, first compound 0.00316 µM
[27] = second compound 1 µM, first compound 0.00999 µM
[28] = second compound 1 µM, first compound 0.0999 µM
[29] = second compound 3.16 µM, first compound 0.000999 µM
[30] = second compound 3.16 µM, first compound 0.00316 µM
[31] = second compound 3.16 µM, first compound 0.00999 µM
[32] = second compound 3.16 µM, first compound 0.0999 µM
[33] = second compound 10 µM, first compound 0.000999 µM
[34] = second compound 10 µM, first compound 0.00316 µM
[35] = second compound 10 µM, first compound 0.00999 µM
[36] = second compound 10 µM, first compound 0.0999 µM
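Note: spheroids exposed to compounds for seven days before readout.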
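Throughout, for viability, T/C: percent viability relative to DMSO vehicle control wells as 100%.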

## C=CC(=O)N1CCN(c2nc(=O)n(-c3c(C)ccnc3C(C)C)c3nc(-c4c(O)cccc4F)c(F)cc23)C(C)C1 (stereo unspecified) + Cc1[nH]c2ccc(F)cc2c1-c1nc2c3cccnc3c3ncccc3c2[nH]1
Second compound 0.0316 µM
  IC50: > 10000 nM
Second compound 0.1 µM
  IC50: > 10000 nM
Second compound 0.316 µM
  IC50: > 10000 nM
Second compound 1 µM
  IC50: > 10000 nM
Second compound 3.16 µM
  IC50: > 10000 nM
Second compound 10 µM
  IC50: > 10000 nM
[1]
  viability, T/C: 114%
Second compound 0.0316 µM, first compound 0.1 µM
  viability, T/C: 100%
[2]
  viability, T/C: 103%
Second compound 0.0316 µM, first compound 1 µM
  viability, T/C: 89.4%
Second compound 0.0316 µM, first compound 3.16 µM
  viability, T/C: 122%
Second compound 0.0316 µM, first compound 10 µM
  viability, T/C: 102%
[3]
  viability, T/C: 80.1%
Second compound 0.1 µM, first compound 0.1 µM
  viability, T/C: 109%
[4]
  viability, T/C: 116%
Second compound 0.1 µM, first compound 1 µM
  viability, T/C: 112%
Second compound 0.1 µM, first compound 3.16 µM
  viability, T/C: 117%
Second compound 0.1 µM, first compound 10 µM
  viability, T/C: 102%
[5]
  viability, T/C: 87.3%
Second compound 0.316 µM, first compound 0.1 µM
  viability, T/C: 86.4%
[6]
  viability, T/C: 92%
Second compound 0.316 µM, first compound 1 µM
  viability, T/C: 101%
Second compound 0.316 µM, first compound 3.16 µM
  viability, T/C: 111%
Second compound 0.316 µM, first compound 10 µM
  viability, T/C: 96.7%
[7]
  viability, T/C: 96.7%
Second compound 1 µM, first compound 0.1 µM
  viability, T/C: 86.5%
[8]
  viability, T/C: 104%
Second compound 1 µM, first compound 1 µM
  viability, T/C: 103%
Second compound 1 µM, first compound 3.16 µM
  viability, T/C: 113%
Second compound 1 µM, first compound 10 µM
  viability, T/C: 104%
[9]
  viability, T/C: 91.7%
Second compound 3.16 µM, first compound 0.1 µM
  viability, T/C: 95.5%
[10]
  viability, T/C: 108%
Second compound 3.16 µM, first compound 1 µM
  viability, T/C: 83.6%
Second compound 3.16 µM, first compound 3.16 µM
  viability, T/C: 92.1%
Second compound 3.16 µM, first compound 10 µM
  viability, T/C: 90.8%
[11]
  viability, T/C: 87.3%
Second compound 10 µM, first compound 0.1 µM
  viability, T/C: 105%
[12]
  viability, T/C: 78.1%
Second compound 10 µM, first compound 1 µM
  viability, T/C: 80.8%
Second compound 10 µM, first compound 3.16 µM
  viability, T/C: 87.7%
Second compound 10 µM, first compound 10 µM
  viability, T/C: 76.5%

## CC[C@@]1(O)C(=O)OCc2c1cc1n(c2=O)Cc2cc3c(CN(C)C)c(O)ccc3nc2-1 + Cc1[nH]c2ccc(F)cc2c1-c1nc2c3cccnc3c3ncccc3c2[nH]1
Second compound 0.0316 µM
  IC50: 134 nM
Second compound 0.1 µM
  IC50: 178 nM
Second compound 0.316 µM
  IC50: 89 nM
Second compound 1 µM
  IC50: 125 nM
Second compound 3.16 µM
  IC50: 121 nM
Second compound 10 µM
  IC50: 148 nM
[13]
  viability, T/C: 124%
[14]
  viability, T/C: 107%
[15]
  viability, T/C: 99.4%
[1]
  viability, T/C: 70.6%
[16]
  viability, T/C: 57.5%
[2]
  viability, T/C: 34.4%
[17]
  viability, T/C: 85.6%
[18]
  viability, T/C: 83.4%
[19]
  viability, T/C: 97.1%
[3]
  viability, T/C: 89.8%
[20]
  viability, T/C: 59%
[4]
  viability, T/C: 41.1%
[21]
  viability, T/C: 106%
[22]
  viability, T/C: 94.7%
[23]
  viability, T/C: 108%
[5]
  viability, T/C: 75.6%
[24]
  viability, T/C: 50.3%
[6]
  viability, T/C: 38.5%
[25]
  viability, T/C: 93.3%
[26]
  viability, T/C: 105%
[27]
  viability, T/C: 118%
[7]
  viability, T/C: 82.9%
[28]
  viability, T/C: 56%
[8]
  viability, T/C: 36.5%
[29]
  viability, T/C: 88.1%
[30]
  viability, T/C: 99.7%
[31]
  viability, T/C: 79.9%
[9]
  viability, T/C: 65.3%
[32]
  viability, T/C: 57.2%
[10]
  viability, T/C: 33.8%
[33]
  viability, T/C: 81.5%
[34]
  viability, T/C: 101%
[35]
  viability, T/C: 68.3%
[11]
  viability, T/C: 77.2%
[36]
  viability, T/C: 58.2%
[12]
  viability, T/C: 34%

## CCc1c2c(nc3ccc(O)cc13)-c1cc3c(c(=O)n1C2)COC(=O)[C@]3(O)CC + Cc1[nH]c2ccc(F)cc2c1-c1nc2c3cccnc3c3ncccc3c2[nH]1
Second compound 0.0316 µM
  IC50: 4.64 nM
Second compound 0.1 µM
  IC50: 5.56 nM
Second compound 0.316 µM
  IC50: 7.02 nM
Second compound 1 µM
  IC50: 6.08 nM
Second compound 3.16 µM
  IC50: 7.23 nM
Second compound 10 µM
  IC50: 4.06 nM
[13]
  viability, T/C: 76.6%
[14]
  viability, T/C: 58.1%
[15]
  viability, T/C: 35.2%
[1]
  viability, T/C: 20.1%
[16]
  viability, T/C: 17.6%
[2]
  viability, T/C: 6.23%
[17]
  viability, T/C: 78.8%
[18]
  viability, T/C: 62.2%
[19]
  viability, T/C: 35.6%
[3]
  viability, T/C: 27.4%
[20]
  viability, T/C: 10.9%
[4]
  viability, T/C: 5.79%
[21]
  viability, T/C: 83.4%
[22]
  viability, T/C: 71.4%
[23]
  viability, T/C: 38.2%
[5]
  viability, T/C: 22.4%
[24]
  viability, T/C: 15.7%
[6]
  viability, T/C: 3.93%
[25]
  viability, T/C: 71.4%
[26]
  viability, T/C: 60.9%
[27]
  viability, T/C: 41.6%
[7]
  viability, T/C: 23.8%
[28]
  viability, T/C: 12.5%
[8]
  viability, T/C: 7.51%
[29]
  viability, T/C: 98.3%
[30]
  viability, T/C: 73.2%
[31]
  viability, T/C: 38.1%
[9]
  viability, T/C: 24.4%
[32]
  viability, T/C: 13.3%
[10]
  viability, T/C: 5.95%
[33]
  viability, T/C: 76.1%
[34]
  viability, T/C: 50%
[35]
  viability, T/C: 37.8%
[11]
  viability, T/C: 27.7%
[36]
  viability, T/C: 10.8%
[12]
  viability, T/C: 6.05%
